Data: ChEMBL document CHEMBL1153885, “Design, synthesis and evaluation of novel uracil acetamide derivatives as potential inhibitors of Plasmodium falciparum dUTP nucleotidohydrolase” (Eur J Med Chem, 2009)

Experiments:
dUTP pyrophosphatase = biological target: T1, dUTP pyrophosphatase (Plasmodium falciparum 3D7, UniProt Q8II92); assay: Inhibition of Plasmodium falciparum dUTPase
T1 sequence (Q8II92 whole entry): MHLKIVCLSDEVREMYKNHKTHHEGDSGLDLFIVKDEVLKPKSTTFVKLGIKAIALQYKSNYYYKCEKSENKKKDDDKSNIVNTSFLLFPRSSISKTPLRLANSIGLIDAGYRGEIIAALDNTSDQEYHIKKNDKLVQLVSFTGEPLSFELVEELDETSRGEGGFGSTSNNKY

L6 = assay: Cytotoxicity against rat L6 cells; format: cell-based
[1] = Selectivity ratio of human dUTPase to Plasmodium falciparum dUTPase
Plasmodium falciparum = assay: Antiplasmodial activity against chloroquine-resistant Plasmodium falciparum K1 infected erythrocytes; format: functional, organism-based
[2] = biological target: T2, Deoxyuridine 5'-triphosphate nucleotidohydrolase, mitochondrial (Homo sapiens, UniProt P33316); assay: Inhibition of human dUTPase
T2 sequence (P33316 whole entry): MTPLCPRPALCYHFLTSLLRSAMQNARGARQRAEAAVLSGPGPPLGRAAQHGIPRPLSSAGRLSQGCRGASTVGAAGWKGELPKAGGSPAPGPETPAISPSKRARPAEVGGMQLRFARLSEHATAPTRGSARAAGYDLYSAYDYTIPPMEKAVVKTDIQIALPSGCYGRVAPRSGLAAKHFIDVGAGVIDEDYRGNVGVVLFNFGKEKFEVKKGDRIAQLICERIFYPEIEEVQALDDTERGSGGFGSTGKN

Structure (SMILES)	Ki (dUTP pyrophosphatase)	Activity (L6)	Selectivity Index [1]	IC50 (Plasmodium falciparum)	Ki [2]
O=C(Cn1ccc(=O)[nH]c1=O)NCCNCCNC(c1ccccc1)(c1ccccc1)c1ccccc1	> 1000 µM	52.7 µM	> 1	4.5 µM	> 1000 µM
CC(C)(C)[Si](OCCCCNC(=O)Cn1ccc(=O)[nH]c1=O)(c1ccccc1)c1ccccc1	> 1000 µM	33.4 µM	> 1	3.7 µM	> 1000 µM
O=C(Cn1ccc(=O)[nH]c1=O)NCCCCNC(c1ccccc1)(c1ccccc1)c1ccccc1	> 1000 µM	42.7 µM	> 1	2.9 µM	> 1000 µM
O=c1ccn(CCCCCNC(c2ccccc2)(c2ccccc2)c2ccccc2)c(=O)[nH]1	–	39 µM	> 232	–	–
CC(C)(C)[Si](NCCCCCCn1ccc(=O)[nH]c1=O)(c1ccccc1)c1ccccc1	8.5 µM	18 µM	> 117	3.9 µM	> 1000 µM
O=c1ccn(CCCCCCNC(c2ccccc2)(c2ccccc2)c2ccccc2)c(=O)[nH]1	–	40 µM	> 555	–	–
O=C(Cn1ccc(=O)[nH]c1=O)NCCCNCCCNC(c1ccccc1)(c1ccccc1)c1ccccc1	> 1000 µM	76.7 µM	> 1	3.9 µM	> 1000 µM
O=C(Cn1ccc(=O)[nH]c1=O)N(CCO)CCNC(c1ccccc1)(c1ccccc1)c1ccccc1	> 1000 µM	> 373 µM	> 1	> 83 µM	> 1000 µM
CC(C)(C)[Si](OCCCNC(=O)Cn1ccc(=O)[nH]c1=O)(c1ccccc1)c1ccccc1	> 1000 µM	88.9 µM	> 1	4.6 µM	> 1000 µM
O=C(Cn1ccc(=O)[nH]c1=O)NCCNC(c1ccccc1)(c1ccccc1)c1ccccc1	37.3 µM	53 µM	> 26	4.2 µM	> 1000 µM
O=C(Cn1ccc(=O)[nH]c1=O)NCCCNC(c1ccccc1)(c1ccccc1)c1ccccc1	23.1 µM	102.2 µM	> 43	2.5 µM	> 1000 µM
